In one assay the test system is c-Myc protein. Kind of assay: c-Myc protein level in A549 cells. In kind it is cell-based, human. From the text:
(§1) A549 cells were exposed to vehicle, general transcription inhibitor actinomycin D or anti-c-Myc compound.
(§2) In gray, cell nuclei stained with DAPI; in red, c-Myc protein; in purple, c-Myc mRNA; in yellow, c-Myc transcription sites.

In assay [1] the test system is c-Myc mRNA. Kind of assay: Fluorescent in situ hybridization (FISH) assay for c-Myc mRNA. In kind it is cell-based, human. The following applies: A549 cells, 4 hours, FIG. 3 lower panel. The method, then:
A549 cells were incubated with compounds for 24 hours (FIG. 3, upper panel) and c-Myc protein detected by immunofluorescence. In parallel, A549 cells were incubated with compounds for 4 hours and c-Myc mRNA was visualized by micrscopy using c-Myc mRNA specific fluorescent-tagged probes (FIG. 3, lower panel).
A549 cells were grown in 384-wells plates (Perkin Elmer, Cat. 6057300) for 48 hours, treated with compounds for 4 hours and then fixed for 20 min in 4% paraformaldehyde. Next day, permeabilization was done for 90 min at 4° C., using 70% ethanol. Then, the cells were incubated for 10 min with 10% formamide in 10% saline-sodium citrate. Fluorescently labeled custome DNA probes that target c-Myc (Cy3, BioSearch Technologies, Cat. SMF-1063-5) and GAPDH (Cy5, BioSearch Technologies, Cat. SMF-2019-1) mRNAs were hybridized overnight at 37° C. in a dark chamber in 10% formamide. The next day, cells were washed twice with 10% formamide for 30 min. […]
Following RNA FISH experiments, images of cells were taken with Operetta (Perkin Elmer, USA), a wide-field fluorescence microscope at ×63 magnification. […] In Columbus, cells were identified by their nucleus, using the “Find Nuceli” module, cytoplasm was detected based on the FISH-channel, and single mRNAs in the cytoplasm and transcription sites in the nucleus were detected using “Find Spots” module. […]

The subject of another assay is c-Myc. Kind of assay: c-Myc immunofluorescence assay. The following applies: A549 cells; for Myc Efficacy (−LogEC50): 24 hours treatment, anti-c-Myc immunofluorescence. The assay is classed as cell-based, human. In short, it runs like this:
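High-content imaging (20×) of PFA-fixed A549 cells immunostained for c-Myc with DAPI nuclei, after 24 h compound treatment at increasing concentrations. Per-cell c-Myc signal in identified cell regions was plotted against dose and fitted by logistic regression to give EC50.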

The test system of assay [2] is c-Myc mRNA. Kind of assay: c-Myc mRNA level and transcription sites in A549 cells. In kind it is cell-based, human.
Description: as §1, §2

In assay [3] the test system is A549 xenografts. Kind of assay: A549 xenograft tumor growth in nude mice. In kind it is in vivo. The following applies: NMRI female nude mice, 3 mg/kg twice a week for 49 days, p<0.05. The method, then: Relative tumor volumes of A549 xenografts in NMRI female nude mice after treatment with compound 3 mg/kg twice a week for 49 days. Error bars represent median±SEM, n=10 mice at each time point and analyzed by one-tailed T-TEST in Prism for *p<0.05

In assay [4] the test system is A549 xenografts. Kind of assay: A549 xenograft model in nude mice. In kind it is in vivo, NMRI nude female mice. As to conditions: 3 mg/kg i.p. twice a week for 49 days, FIG. 5. The method, then: NMRI nude female mice of 6-8 weeks of age were acclimated after shipping for >4 days. A549 cells, 5×10^6 in 100 ul Matrigel:PBS (50:50), were subcutaneously injected into flanks of mice. When the tumor size reached 80 to 200 mm^3, mice were grouped with similar average tumor size in each group, 10 animals per group. Compounds were dissolved in 10% DMSO, 10% Solutol, 80% water. Compounds were given i.p. for 49 days at 3 mg/kg twice a week. Caliper measurement of tumor size was done twice a week.
Error bars represent median±SEM, n=10 mice at each time point and analyzed by one-tailed T-TEST in Prism for *p<0.05.

In a further assay the test system is A549 cells. Kind of assay: Metabolic labeling (L-Azidohomoalanine) of global protein synthesis in A549 cells. The assay is classed as cell-based, human. From the text:
FIG. 2 depicts selective regulation of c-Myc translation. […] In gray, cell nuclei stained with DAPI; in yellow, L-Azidohomoalanine (AHA) metabolic labeling.

A further assay relates to global translation. Kind of assay: Metabolic labeling assay (global translation, modified methionine incorporation). The assay is classed as cell-based, human. As to conditions: A549 cells, 4 hour pulse, FIG. 2. The method, then:
A549 cells were incubated with active compounds and metabolically labelled with fluorescent methionine for a 4 hour pulse (click-chemistry modified methionine). Cells were fixed and newly synthesized proteins detected by using click-chemistry with a fluorescent detector (FIG. 2).
A549 cells were seeded at 3,200 cells per well in complete culture medium. Plates were incubated at 37° C., 5% CO2 overnight. After 48 hours of incubation, the growth medium was aspirated, and cells were washed three times with HBSS. Metabolic labeling medium DMEM (-Cys-Met), containing 10% dialyzed FBS, 10% pencillin-streptomycin and 1% L-glutamine was added to the cells for 30 min. Then medium was replaced by metabolic labeling medium containing 25 μM L-Azidohomoalanine (AHA, ThermoFisher) and tested compounds at a final concentration of 30 μM, and cells were incubated for 4 hours at 37° C., 5% CO2. Cells were washed by HBSS at 37° C. for 15 min before fixing with 4% paraformaldehyde. Cells were washed twice with 3% BSA in PBS before permeabilization with 0.5% Triton X-100 in PBS for 20 min. The AHA staining with Alexa Fluor™ 555 alkyne was performed according to the manufacturer protocol. Images were captured with Operetta microscope (Perkin Elmer) using ×20 high NA objective lens.

The source of these data is patent US12404283B2, “c-MYC mRNA translation modulators and uses thereof in the treatment of cancer” (Anima Biotech Inc., priority 2022, dated 2025).

Numbered stars: 1 amine (or outer) side, 2 acyl side, 3 side chain; on linkers, the order of the positions; unused ones are H or OH. Bridge positions count the residues as written; N and C are the ends. Square brackets hold non-standard residues; d marks the D form. Peptide text beside a SMILES is read from it. I, II: the chains in the order shown. Actinocin(9to1) = Cc1c2oc3c(C)ccc(C(=O)[*:1])c3nc-2c(C(=O)[*:2])c(N)c1=O; NMeV = CN[C@H](C(=O)O)C(C)C; Sar = CNCC(=O)O

For the compound `Cc1c2oc3c(C)ccc(C(=O)N[C@@H]4C(=O)N[C@H](C(C)C)C(=O)N5CCC[C@H]5C(=O)N(C)CC(=O)N(C)[C@@H](C(C)C)C(=O)O[C@@H]4C)c3nc-2c(C(=O)N[C@@H]2C(=O)N[C@H](C(C)C)C(=O)N3CCC[C@H]3C(=O)N(C)CC(=O)N(C)[C@@H](C(C)C)C(=O)O[C@@H]2C)c(N)c1=O` [actinomycin D] (I: T[dV]P[Sar][NMeV] / II: T[dV]P[Sar][NMeV]; ester I:1-I:C, II:1-II:C; linker I:N-II:N via Actinocin(9to1)), in the assay with c-Myc protein, the c-Myc protein level entry is recorded as “significant decrease”. Moreover, in the assay with c-Myc mRNA [1], the “c-Myc mRNA in the cytoplasm” value is “mRNA accumulation in the cytoplasm” and the “c-Myc transcription site (spots inside the nucleus)” value is “inhibited transcription site”. In addition, the “c-Myc protein detected by immunofluorescence” value in the assay on c-Myc (24 hours, FIG. 3 upper panel) is “reduced c-Myc protein”. Further, in the assay with c-Myc mRNA [2], the “c-Myc mRNA level” value is on record as “complete reduction” and the c-Myc transcription sites entry is “complete reduction”.

On to `NC1(c2ccc(-c3cn4c(n3)sc3cc(C(=O)NCCCN5CCCCC5)ccc34)cc2)CC1` [compound 332, 2-(4-(1-aminocyclopropyl)phenyl)-N-(3-(piperidin-1-yl)propyl)benzo[d]imidazo [2,1-b]thiazole-7-carboxamide], for which the “c-Myc-dependent tumor growth (relative tumor volumes)” value with A549 xenografts [3] is given as “inhibited c-Myc-dependent tumor growth in-vivo”. Further, the “c-Myc-dependent tumor growth (relative tumor volume)” value with A549 xenografts [4] was “inhibited c-Myc-dependent tumor growth in-vivo”. The “Myc Efficacy (−LogEC50)” value in the assay on c-Myc is recorded as “+++ (+++ ≥6)”.

Consider `CN1C2CCC1CC(NC(=O)c1ccc3c(c1)sc1nc(-c4ccc([C@@H]5CCCN5)cc4F)cn13)C2` (stereo partly drawn) [compound 531, 2-(2-fluoro-4-(pyrrolidin-2-yl)phenyl)-N-(8-methyl-8-azabicyclo[3.2.1]octan-3-yl)benzo[d]imidazo[2,1-b]thiazole-7-carboxamide], for which the “Myc Efficacy (−LogEC50)” value in the assay on c-Myc was “++ (++ ≥5 and <6)”.

In the case of `NC(=O)c1ccc2c(c1)sc1nc(-c3ccc(C4CC(C(F)F)CN4)cc3F)cn12` (stereo not drawn) [compound 540, 2-(4-(4-(difluoromethyl)pyrrolidin-2-yl)-2-fluorophenyl)benzo[d]imidazo [2,1-b]thiazole-7-carboxamide], in the assay with c-Myc, the “Myc Efficacy (−LogEC50)” value was “+++ (+++ ≥6)”.

Turning to `CN1CCC(NC(=O)c2ccc3c(c2)sc2nc(-c4ccc(C5CC(C#N)CN5)cc4F)cn23)CC1` (stereo not drawn) [compound 541, 2-(4-(4-cyanopyrrolidin-2-yl)-2-fluorophenyl)-N-(1-methylpiperidin-4-yl)benzo[d]imidazo[2,1-b]thiazole-7-carboxamide], the “Myc Efficacy (−LogEC50)” value in the assay with c-Myc was “+++ (+++ ≥6)”.

Consider `O=C(NC1COCOC1)c1ccc2c(c1)sc1nc(-c3ccc(C4CCCN4)cc3F)cn12` (stereo not drawn) [compound 545, N-(1,3-dioxan-5-yl)-2-(2-fluoro-4-(pyrrolidin-2-yl)phenyl)benzo[d]imidazo[2,1-b]thiazole-7-carboxamide], for which the “Myc Efficacy (−LogEC50)” value in the assay on c-Myc was “+++ (+++ ≥6)”.

With `CN1CCC(NC(=O)c2ccc3c(c2)sc2nc(-c4ccc(C5CCNCC5O)cc4F)cn23)CC1` (stereo not drawn) [compound 546, 2-(2-fluoro-4-(3-hydroxypiperidin-4-yl)phenyl)-N-(1-methylpiperidin-4-yl)benzo[d]imidazo[2,1-b]thiazole-7-carboxamide], the “Myc Efficacy (−LogEC50)” value in the assay on c-Myc is “+++ (+++ ≥6)”.

For `O=C(NCCCN1CCC(F)CC1)c1ccc2c(c1)sc1nc(-c3cc4c(cc3F)CCN4)cn12` [compound 601, 2-(5-fluoroindolin-6-yl)-N-(3-(4-fluoropiperidin-1-yl)propyl)benzo[d]imidazo[2,1-b]thiazole-7-carboxamide], the “Myc Efficacy (−LogEC50)” value in the assay with c-Myc is given as “+++ (+++ ≥6)”.

As for `C[C@@H]1C[C@@H]([C@H](O)CC2CC(=O)NC(=O)C2)C(=O)[C@@H](C)C1` [cycloheximide], in the assay with A549 cells, the “global protein synthesis (AHA metabolic labeling)” value was “total inhibition”. The “incorporation of modified methionine (global translation)” value with global translation is listed as “completely reduced incorporation of modified methionine”.

On to “N-(2- (dimethylamino)propyl)-2- (4- (methylcarbamoyl)phenyl) benzo[d]imidazo[2,1-b] thiazole-7-carboxamide [compound 239]”, for which, in the assay with c-Myc, the “Myc Efficacy (−LogEC50)” value is “+ (+ >3 and <5)”.
